Data as given in ChEMBL document CHEMBL4359836, “Synthesis and Biological Assessment of Pyrrolobenzoxazine Scaffold as a Potent Antioxidant” (J Med Chem, 2019).
Activity calls are given as the source filed them. The rule behind the calls is not given here.

Assays:
Mitochondria [1] = assay: Antioxidant activity in goat cardiac mitochondria assessed as inhibition of CuCl2/ascorbic acid-induced manganese superoxide dismutase at 16.5 uM after 1 hr by pyrogallol autoxidation method relative to control; format: functional, subcellular; settings: Capra hircus, Heart, Mitochrondria
Mitochondria [2] = assay: Antioxidant activity in goat cardiac mitochondria assessed as inhibition of CuCl2/ascorbic acid-induced manganese superoxide dismutase at 8.25 uM after 1 hr by pyrogallol autoxidation method relative to control; format: functional, subcellular; settings: Capra hircus, Heart, Mitochrondria
[3] = Antioxidant activity in pH 7.4 phosphate buffer assessed as DPPH radical scavenging activity after 30 mins by spectrophotometric analysis; format: functional
[4] = Reducing power of the compound assessed as reducing Fe3+ power at 80 uM using K3Fe(CN)6 in pH 6.6 phosphate buffer after 20 mins by spectrophotometric analysis
Mitochondria [5] = assay: Antioxidant activity in goat cardiac mitochondria assessed as inhibition of CuCl2/ascorbic acid-induced lipid peroxidation at 16.5 uM after 1 hr by thiobarbituric acid based UV-Visible spectrophotometric method (reference value: 60.11%); format: functional, subcellular; settings: Capra hircus, Heart, Mitochrondria
Mitochondria [6] = assay: Antioxidant activity in goat cardiac mitochondria assessed as reversal of CuCl2/ascorbic acid-induced reduction in GSH level at 16.5 uM after 1 hr by DTNB reagent based method relative to control; format: functional, subcellular; settings: Capra hircus, Heart, Mitochrondria
Mitochondria [7] = assay: Antioxidant activity in goat cardiac mitochondria assessed as reversal of CuCl2/ascorbic acid-induced reduction in PDH level at 8.25 uM using sodium pyruvate as substrate after 1 hr by spectrophotometric analysis (reference value: 66.25%); format: functional, subcellular; parameters: scale not given: the % may be the effect or the level left; settings: Capra hircus, Heart, Mitochrondria
Mitochondria [8] = assay: Antioxidant activity in goat cardiac mitochondria assessed as reversal of CuCl2/ascorbic acid-induced reduction in PDH level at 66 uM using sodium pyruvate as substrate after 1 hr by spectrophotometric analysis relative to control; format: functional, subcellular; settings: Capra hircus, Heart, Mitochrondria
Mitochondria [9] = assay: Antioxidant activity in goat cardiac mitochondria assessed as reversal of CuCl2/ascorbic acid-induced reduction in ICDH level at 16.5 uM using isocitrate as substrate after 1 hr (reference value: 65.58%); format: functional, subcellular; parameters: scale not given: the % may be the effect or the level left; settings: Capra hircus, Heart, Mitochrondria
Mitochondria [10] = assay: Antioxidant activity in goat cardiac mitochondria assessed as reversal of CuCl2/ascorbic acid-induced reduction in ICDH level at 66 uM using isocitrate as substrate after 1 hr relative to control; format: functional, subcellular; settings: Capra hircus, Heart, Mitochrondria
Mitochondria [11] = assay: Antioxidant activity in goat cardiac mitochondria assessed as reversal of CuCl2/ascorbic acid-induced reduction in alpha-KGDH level at 16.5 uM using alpha-ketoglutarate as substrate after 1 hr (reference value: 69.78%); format: functional, subcellular; parameters: scale not given: the % may be the effect or the level left; settings: Capra hircus, Heart, Mitochrondria
Mitochondria [12] = assay: Antioxidant activity in goat cardiac mitochondria assessed as reversal of CuCl2/ascorbic acid-induced reduction in alpha-KGDH level at 66 uM using alpha-ketoglutarate as substrate after 1 hr relative to control; format: functional, subcellular; settings: Capra hircus, Heart, Mitochrondria
Mitochondria [13] = assay: Antioxidant activity in goat cardiac mitochondria assessed as reversal of CuCl2/ascorbic acid-induced reduction in SDH level at 8.25 uM using succinate as substrate after 1 hr by spectrophotometric analysis (reference value: 71.51%); format: functional, subcellular; parameters: scale not given: the % may be the effect or the level left; settings: Capra hircus, Heart, Mitochrondria
Mitochondria [14] = assay: Antioxidant activity in goat cardiac mitochondria assessed as reversal of CuCl2/ascorbic acid-induced reduction in SDH level at 16.5 uM using succinate as substrate after 1 hr by spectrophotometric analysis relative to control; format: functional, subcellular; settings: Capra hircus, Heart, Mitochrondria
Mitochondria [15] = assay: Antioxidant activity in goat cardiac mitochondria assessed as reversal of CuCl2/ascorbic acid-induced reduction in SDH level at 33 uM using succinate as substrate after 1 hr by spectrophotometric analysis relative to control; format: functional, subcellular; settings: Capra hircus, Heart, Mitochrondria
Mitochondria [16] = assay: Antioxidant activity in goat cardiac mitochondria assessed as reversal of CuCl2/ascorbic acid-induced reduction in SDH level at 66 uM using succinate as substrate after 1 hr by spectrophotometric analysis relative to control; format: functional, subcellular; settings: Capra hircus, Heart, Mitochrondria
[17] = Effect on alpha-KGDH levels in goat cardiac mitochondria at 8.25 to 66 uM using alpha-ketoglutarate as substrate after 1 hr; format: ADME, subcellular, Capra hircus, Heart, Mitochrondria
[18] = Inhibition of succinate dehydrogenase in goat cardiac mitochondria assessed as effect on Vmax at 66 uM using succinate as substrate after 1 hr by Lineweaver-Burk double reciprocal plot analysis; parameters: species or system Capra hircus, Heart
Capra hircus [19] = organism: Capra hircus; assay: Effect on PDH in goat cardiac mitochondria assessed as reversal of CuCl2/ascorbic acid induced reduction in Km at 66 uM using sodium pyruvate as substrate after 1 hr by Lineweaver-Burk double reciprocal plot analysis; settings: Heart
Capra hircus [20] = organism: Capra hircus; assay: Effect on alpha-ketoglutarate dehydrogenase in goat cardiac mitochondria assessed as reversal of CuCl2/ascorbic acid induced reduction in Km at 66 uM using alpha-ketoglutarate as substrate after 1 hr by Lineweaver-Burk double reciprocal plot analysis; settings: Heart
Capra hircus [21] = organism: Capra hircus; assay: Effect on succinate dehydrogenase in goat cardiac mitochondria assessed as reversal of CuCl2/ascorbic acid induced reduction in Vmax at 66 uM using succinate as substrate after 1 hr by Lineweaver-Burk double reciprocal plot analysis; settings: Heart
Capra hircus [22] = organism: Capra hircus; assay: Effect on succinate dehydrogenase in goat cardiac mitochondria assessed as reversal of CuCl2/ascorbic acid induced reduction in Km at 66 uM using succinate as substrate after 1 hr by Lineweaver-Burk double reciprocal plot analysis; settings: Heart
[23] = Effect on manganese superoxide dismutase-like activity in cardiac mitochondria at 8.25 to 66 uM after 1 hr by pyrogallol autoxidation method relative to control; format: ADME, subcellular, Capra hircus, Heart, Mitochrondria; settings: goat
Mitochondria [24] = assay: Protective activity against CuCl2/ascorbic acid-induced apoptotic alteration in goat cardiac mitochondria assessed as reversal of CuCl2/ascorbic acid-induced reduction in cytochrome c oxidoreductase activity at 8.25 uM incubated for 1 hr and measured at 10 secs time interval for 90 secs by spectrophotometric analysis (reference value: 47.82%); format: functional, subcellular; parameters: scale not given: the % may be the effect or the level left; settings: Capra hircus, Heart, Mitochrondria
Mitochondria [25] = assay: Protective activity against CuCl2/ascorbic acid-induced apoptotic alteration in goat cardiac mitochondria assessed as reversal of CuCl2/ascorbic acid-induced reduction in cytochrome c oxidase activity at 16.5 uM incubated for 1 hr and measured at 10 secs time interval for 90 secs by spectrophotometric analysis relative to control; format: functional, subcellular; settings: Capra hircus, Heart, Mitochrondria
[26] = Effect on cytochrome c oxidase activity in goat cardiac mitochondria at 8.25 to 66 uM incubated for 1 hr and measured at 10 secs time interval for 90 secs by spectrophotometric analysis; format: ADME, subcellular, Capra hircus, Heart, Mitochrondria
[27] = Induction of structural distortion in goat cardiac mitochondria at 66 uM after 1 hr by scanning electron microscopy; format: subcellular, Capra hircus, Heart, Mitochrondria
Mitochondria [28] = assay: Protection against CuCl2/ascorbic acid-induced depolarization of goat cardiac mitochondria at 66 uM after 60 mins by calcein AM dye-based flow cytometric analysis; format: functional, subcellular; settings: Capra hircus, Heart, Mitochrondria
[29] = Binding affinity to Cu2+/ascorbate assessed as decrease in heat change at 66 uM in presence of ascorbic acid/CuCl2 by isothermal titration calorimetry
[30] = Binding affinity to Cu2+ assessed as binding constant K1 at 66 uM in presence of CuCl2 by isothermal titration calorimetry
[31] = Binding affinity to ascorbate at 66 uM in presence of ascorbic acid by isothermal titration calorimetry
[32] = Binding affinity to Cu2+ assessed as binding constant K2 at 66 uM in presence of CuCl2 by isothermal titration calorimetry
[33] = Binding affinity to Cu2+ assessed as binding constant K2 at 66 uM in presence of ascorbic acid/CuCl2 by isothermal titration calorimetry

Q: With `CCOC(=O)c1c(-c2ccc(O)c(OC)c2)cn2c1c(=O)oc1ccccc12` as the compound, how does the inhibition (Mitochondria [1]) read?
A: 34.1%

Q: What about the inhibition (Mitochondria [2]) of the same compound?
A: 25.7%

Q: And the Activity [3]?
A: Dose-dependent effect

Q: What about the IC50 [3] of the same compound?
A: 46.4 µM

Q: And the MEC [3]?
A: 66 µM

Q: And the Activity [4]?
A: Dose-dependent effect

Q: And the inhibition (Mitochondria [5])?
A: 19.9%

Q: And the fold change (FC) (Mitochondria [6])?
A: 3.06

Q: And the Activity (Mitochondria [7])?
A: 49.3%

Q: What about the fold change (FC) (Mitochondria [8]) of the same compound?
A: 3.82

Q: And the Activity (Mitochondria [9])?
A: 75.5%

Q: What about the fold change (FC) (Mitochondria [10]) of the same compound?
A: 3.52

Q: And the Activity (Mitochondria [11])?
A: 85.4%

Q: And the fold change (FC) (Mitochondria [12])?
A: 4.62

Q: And the Activity (Mitochondria [13])?
A: 51.7%

Q: What about the fold change (FC) (Mitochondria [14]) of the same compound?
A: 2.08

Q: What about the fold change (FC) (Mitochondria [15]) of the same compound?
A: 3.06

Q: What about the fold change (FC) (Mitochondria [16]) of the same compound?
A: 5

Q: What about the Activity [17] of the same compound?
A: Non-Toxic

Q: And the “inhibition (INH)” value [18]?
A: Not Active

Q: And the Activity (Capra hircus [19])?
A: Active

Q: And the Activity (Capra hircus [20])?
A: Active

Q: What about the Activity (Capra hircus [21]) of the same compound?
A: Active

Q: What about the Activity (Capra hircus [22]) of the same compound?
A: Active

Q: And the Activity [23]?
A: Non-Toxic

Q: And the Activity (Mitochondria [24])?
A: 23.5%

Q: What about the fold change (FC) (Mitochondria [25]) of the same compound?
A: 2.36

Q: And the Activity [26]?
A: Non-Toxic

Q: What about the Activity [27] of the same compound?
A: Non-Toxic

Q: And the Activity (Mitochondria [28])?
A: Active

Q: And the Activity [29]?
A: Active

Q: What about the K [30] of the same compound?
A: 8.37 ×10⁴ /M

Q: And the K [31]?
A: 4.6 ×10³ /M

Q: What about the K [32] of the same compound?
A: 9.55 ×10⁴ /M

Q: What about the K [33] of the same compound?
A: 5.07 ×10³ /M
